In article PMC3504108 (PLoS ONE, 2012):

Columns and labels:
Sirt5 [1] = target: T1, Sirt5 (Homo sapiens, UniProt Q9NXA8); test: ELISA-based deacetylation assay (weak inhibition, Figure S3B); assay type: biochemical
T1 construct: catalytic core, residues 34–302
T1 sequence (Q9NXA8 34-302): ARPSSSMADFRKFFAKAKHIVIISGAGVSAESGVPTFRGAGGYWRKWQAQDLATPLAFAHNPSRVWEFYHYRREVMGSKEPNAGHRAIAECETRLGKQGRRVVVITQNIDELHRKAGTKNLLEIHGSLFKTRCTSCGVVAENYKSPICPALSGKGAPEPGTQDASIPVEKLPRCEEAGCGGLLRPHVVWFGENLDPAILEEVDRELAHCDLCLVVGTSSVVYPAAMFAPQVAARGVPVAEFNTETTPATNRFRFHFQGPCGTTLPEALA

Sirt3 [2] = target: T2, Sirt3 (Homo sapiens, UniProt Q9NTG7); test: ELISA-based deacetylation assay (Figure S3B); assay type: biochemical
T2 sequence (Q9NTG7 102-399): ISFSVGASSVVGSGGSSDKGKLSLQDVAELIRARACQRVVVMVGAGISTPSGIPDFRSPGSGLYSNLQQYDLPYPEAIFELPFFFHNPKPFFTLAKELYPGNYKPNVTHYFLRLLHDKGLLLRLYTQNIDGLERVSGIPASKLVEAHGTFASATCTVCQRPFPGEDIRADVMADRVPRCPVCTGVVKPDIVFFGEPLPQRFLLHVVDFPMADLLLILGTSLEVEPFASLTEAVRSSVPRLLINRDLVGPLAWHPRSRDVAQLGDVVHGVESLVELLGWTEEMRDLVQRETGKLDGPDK

Sirt3 [3] = target: T3, Sirt3 (Homo sapiens, UniProt Q9NTG7); test: X-ray crystal structure ([…] Å, ternary with FdL1 peptide), plus FdL2 deacetylation inhibition; assay type: binding
T3 construct: catalytic core, residues 118–399
T3 sequence (Q9NTG7 118-399): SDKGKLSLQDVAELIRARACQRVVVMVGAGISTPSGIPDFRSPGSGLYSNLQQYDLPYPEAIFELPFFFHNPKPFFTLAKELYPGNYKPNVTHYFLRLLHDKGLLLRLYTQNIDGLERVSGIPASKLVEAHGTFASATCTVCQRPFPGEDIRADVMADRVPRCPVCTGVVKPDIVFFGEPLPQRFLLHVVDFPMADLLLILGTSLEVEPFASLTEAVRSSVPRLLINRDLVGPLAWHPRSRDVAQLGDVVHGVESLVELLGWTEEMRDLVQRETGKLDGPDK

Sirt5 [4] = target: T1, Sirt5; test: FdL1 fluorogenic deacetylation assay (activation dose-response); assay type: biochemical
Sirt5 [5] = target: T1, Sirt5; test: X-ray crystal structure ([…] Å, ternary with FdL1 peptide; ligand occupancy […]), plus deacetylase activation assays; assay type: binding
Sirt5 [6] = target: T1, Sirt5; test: Cytochrome c deacetylation ELISA (activation, Figure S3A); assay type: biochemical

Structure (SMILES): O=c1c(O)c(-c2ccc(O)c(O)c2)oc2cc(O)ccc12 [fisetin]
- ELISA-based deacetylation assay (weak inhibition, Figure S3B) (Sirt5 [1]): only fisetin shows a weak inhibitory effect on Sirt5
- ELISA-based deacetylation assay (Figure S3B) (Sirt3 [2]): only fisetin shows a weak inhibitory effect on Sirt5 and significant inhibition of Sirt3 in an ELISA-based deacetylation assay

Structure (SMILES): Oc1cc(O)cc(/C=C/c2ccc(O)c(O)c2)c1 [piceatannol]
- X-ray crystal structure (2.3 Å, ternary with FdL1 peptide), plus FdL2 deacetylat (Sirt3 [3]): we also solved the crystal structure of Sirt3 in complex with FdL1-peptide and piceatannol
- EC50 (Sirt5 [4]): 70 ± 20 µM

Structure (SMILES): Oc1ccc(/C=C/c2cc(O)cc(O)c2)cc1 [resveratrol]
- X-ray crystal structure (2.6 Å, ternary with FdL1 peptide); ligand occupancy ~50% (Sirt5 [5]): Co-ordinates and structure factors of Sirt5 in complex with FdL1-peptide and resveratrol

Structure (SMILES): OCCc1ccc(O)cc1 [tyrosol, 4-(2-hydroxyethyl)phenol]
- Cytochrome c deacetylation ELISA (activation, Figure S3A) (Sirt5 [6]): activates Sirt5 in a Cytochrome c deacetylation assay (see below, Figure S3A)
